Reference: patent US20240050428A1 (Cullgen (Shanghai), Inc., priority 2020, published 2024)
Where two headings read alike, the source gives them in different places.

Columns and labels:
[1] = test system: MV4;11 cells; test: Cell viability assay (CellTiter-Glo) in MV4;11 cells, alone or with gilteritinib; assay type: cell-based; settings: read-out: MV4
[2] = test system: MOLM-13 cells; test: Cell viability assay (CellTiter-Glo) in MOLM-13 cells, alone or with gilteritinib; assay type: cell-based
[3] = Homo sapiens, MV4-11, 72 h, MV4;11 cells, with 10 nM gilteritinib, 3 days, CellTiter-Glo, 11 IC50 gilteritinib
[4] = Homo sapiens, MV4-11, 72 h, MV4;11 cells, without gilteritinib, 3 days, CellTiter-Glo, 11 IC50
[5] = Homo sapiens, MOLM-13, 72 h, MOLM-13 cells, with 20 nM gilteritinib, 3 days, CellTiter-Glo, read-out: MOLM-13 IC50 gilteritinib
[6] = Homo sapiens, MOLM-13, 72 h, MOLM-13 cells, without gilteritinib, 3 days, CellTiter-Glo, read-out: MOLM-13 IC50
[7] = Homo sapiens, MV4-11, 72 h, 11 IC50
[8] = Homo sapiens, MV4-11, 72 h, 11 IC50 gilteritinib
[9] = Homo sapiens, MOLM-13, 72 h, read-out: MOLM-13 IC50
[10] = Homo sapiens, MOLM-13, 72 h, read-out: MOLM-13 IC50 gilteritinib

Compound | IC50 [1, 3] [nM] | IC50 [1, 4] [nM] | IC50 [2, 5] [nM] | IC50 [2, 6] [nM] | other results
O=C1CCC(N2C(=O)c3ccc(NCCCN4CC(N5CCN(c6ccccn6)CC5)C4)cc3C2=O)C(=O)N1 (stereo not drawn) | – | – | – | – | IC50 ([1]; Homo sapiens, 72 h, MV4;11 cells, compound alone (without gilteritinib), three days, CellTiter-Glo, 11 IC50): > 1000 nM; IC50 ([1]; Homo sapiens, 72 h, MV4;11 cells, with gilteritinib 10 nM, three days, CellTiter-Glo, 11 IC50 gilteritinib): > 1000 nM; IC50 ([2]; Homo sapiens, 72 h, MOLM-13 cells, compound alone (without gilteritinib), three days, CellTiter-Glo, read-out: MOLM-13 IC50): > 1000 nM; IC50 ([2]; Homo sapiens, 72 h, MOLM-13 cells, with gilteritinib 20 nM, three days, CellTiter-Glo, read-out: MOLM-13 IC50 gilteritinib): 10 to 100 nM
O=C1CCC(N2Cc3cc(CNC(=O)C(F)(F)c4ccc(Cl)cc4)ccc3C2=O)C(=O)N1 (stereo not drawn) [CC-90009, reference compound] | – | – | – | – | IC50 ([1]; MV4;11 cells, with 10 nM gilteritinib, 3 days, CellTiter-Glo, 11 IC50 gilteritinib): 7.1 nM; IC50 ([1]; MV4;11 cells, without gilteritinib, 3 days, CellTiter-Glo, 11 IC50): 54 nM; IC50 ([2]; MOLM-13 cells, with 20 nM gilteritinib, 3 days, CellTiter-Glo, read-out: MOLM-13 IC50 gilteritinib): 8.6 nM; IC50 ([2]; MOLM-13 cells, without gilteritinib, 3 days, CellTiter-Glo, read-out: MOLM-13 IC50): 103 nM
O=C1CCC(N2Cc3cc(CNC(=O)C(F)(F)c4cccc(N5CCC(n6cc(-c7cnc8cccc(Br)c8n7)cn6)CC5)c4)ccc3C2=O)C(=O)N1 (stereo not drawn) [GS-004, 2-(3-(4-(4-(8-bromoquinoxalin-2-yl)-1H-pyrazol-1-yl)piperidin-1-yl)phenyl)-N-((2-(2,6-dioxopiperidin-3-yl)-1-oxoisoindolin-5-yl)methyl)-2,2-difluoroacetamide] | 0.5 | 1.3 | 0.2 | 2.1 | –
O=C1CCC(N2Cc3cc(CNC(=O)C(F)(F)CCC(=O)N4CCC(n5cc(-c6cnc7cccc(Br)c7n6)cn5)CC4)ccc3C2=O)C(=O)N1 (stereo not drawn) [GS-007, 5-(4-(4-(8-bromoquinoxalin-2-yl)-1H-pyrazol-1-yl)piperidin-1-yl)-N-((2-(2,6-dioxopiperidin-3-yl)-1-oxoisoindolin-5-yl)methyl)-2,2-difluoro-5-oxopentanamide] | 9.9 | 170 | 32 | 179 | –
O=C1CCC(N2C(=O)c3ccc(NCCCCCC(=O)N4CCC(c5ccccc5)CC4)cc3C2=O)C(=O)N1 (stereo not drawn) [GS-010, 2-(2,6-Dioxopiperidin-3-yl)-5-((6-oxo-6-(4-phenylpiperidin-1-yl)hexyl)amino)isoindoline-1,3-dione] | – | – | – | – | IC50 [1, 7]: 17 nM; IC50 [1, 8]: 2.3 nM; IC50 [2, 9]: 3 nM; IC50 [2, 10]: 0.3 nM
O=C1CCC(N2Cc3cc(OCCOCCC(=O)N4CCC(n5cc(-c6cnc7cccc(Br)c7n6)cn5)CC4)ccc3C2=O)C(=O)N1 (stereo not drawn) [GS-018, 3-(5-(2-(3-(4-(4-(8-Bromoquinoxalin-2-yl)-1H-pyrazol-1-yl)piperidin-1-yl)-3-oxopropoxy)ethoxy)-1-oxoisoindolin-2-yl)piperidine-2,6-dione] | 0.9 | 8.7 | 1.6 | 15.6 | –
O=C1CCC(N2C(=O)c3ccc(NCCCCCC(=O)N4CCN(c5ccccn5)CC4)cc3C2=O)C(=O)N1 (stereo not drawn) [GS-019, 2-(2,6-Dioxopiperidin-3-yl)-5-((6-oxo-6-(4-(pyridin-2-yl)piperazin-1-yl)hexyl)amino)isoindoline-1,3-dione] | – | – | – | – | IC50 [1, 7]: 162 nM; IC50 [1, 8]: 9.4 nM; IC50 [2, 9]: 146 nM; IC50 [2, 10]: 7 nM
O=C(COc1ccc2c(c1)CN(C1CCC(=O)NC1=O)C2=O)NCCC(=O)N1CCC(n2cc(-c3cnc4cccc(Br)c4n3)cn2)CC1 (stereo not drawn) [GS-022, N-(3-(4-(4-(8-bromoquinoxalin-2-yl)-1H-pyrazol-1-yl)piperidin-1-yl)-3-oxopropyl)-2-((2-(2,6-dioxopiperidin-3-yl)-1-oxoisoindolin-5-yl)oxy)acetamide] | 60 | 293 | 106 | 875 | –

More lines, main results first:

IC50 [1, 3] [nM] | IC50 [1, 4] [nM] | IC50 [2, 5] [nM] | IC50 [2, 6] [nM] | Compound | other results
> 10000 | 4740 | 27 | 301 | O=C1CCC(N2C(=O)c3ccc(NCCCCCC(=O)N4CCCCC4)cc3C2=O)C(=O)N1 (stereo not drawn) [GS-001, 2-(2,6-Dioxopiperidin-3-yl)-5-((6-oxo-6-(piperidin-1-yl)hexyl)amino)isoindoline-1,3-dione] | –
191 | > 10000 | 103 | > 10000 | O=C1CCC(N2C(=O)c3ccc(NCCCCCC(=O)N4CCC(n5cccn5)CC4)cc3C2=O)C(=O)N1 (stereo not drawn) [GS-003, 5-((6-(4-(1H-Pyrazol-1-yl)piperidin-1-yl)-6-oxohexyl)amino)-2-(2,6-dioxopiperidin-3-yl)isoindoline-1,3-dione] | –
27 | 449 | 14 | 78 | O=C1CCC(N2C(=O)c3ccc(NCCCCCC(=O)N4CCC(n5cc(C6CNc7ccccc7N6)cn5)CC4)cc3C2=O)C(=O)N1 (stereo not drawn) [GS-008, 2-(2,6-Dioxopiperidin-3-yl)-5-((6-oxo-6-(4-(4-(1,2,3,4-tetrahydroquinoxalin-2-yl)-1H-pyrazol-1-yl)piperidin-1-yl)hexyl)amino)isoindoline-1,3-dione] | –
22 | 296 | 18 | 35 | O=C1CCC(N2C(=O)c3ccc(NCCCCCC(=O)N4CCC(n5cc(-c6cnccn6)cn5)CC4)cc3C2=O)C(=O)N1 (stereo not drawn) [GS-009, 2-(2,6-Dioxopiperidin-3-yl)-5-((6-oxo-6-(4-(4-(pyrazin-2-yl)-1H-pyrazol-1-yl)piperidin-1-yl)hexyl)amino)isoindoline-1,3-dione] | –
> 10000 | > 10000 | 270 | > 10000 | O=C1CCC(N2C(=O)c3ccc(NCCCCCC(=O)N4CCC(N5CCOCC5)CC4)cc3C2=O)C(=O)N1 (stereo not drawn) [GS-011, 2-(2,6-Dioxopiperidin-3-yl)-5-((6-(4-morpholinopiperidin-1-yl)-6-oxohexyl)amino)isoindoline-1,3-dione] | –
> 10000 | > 10000 | 312 | > 10000 | O=C1CCC(N2C(=O)c3ccc(NCCCCCC(=O)N4CCC(N5CCCCC5)CC4)cc3C2=O)C(=O)N1 (stereo not drawn) [GS-012, 5-((6-([1,4′-Bipiperidin]-1′-yl)-6-oxohexyl)amino)-2-(2,6-dioxopiperidin-3-yl)isoindoline-1,3-dione] | –
> 10000 | > 10000 | 1850 | > 10000 | CN1CCN(C2CCN(C(=O)CCCCCNc3ccc4c(c3)C(=O)N(C3CCC(=O)NC3=O)C4=O)CC2)CC1 (stereo not drawn) [GS-013, 2-(2,6-Dioxopiperidin-3-yl)-5-((6-(4-(4-methylpiperazin-1-yl)piperidin-1-yl)-6-oxohexyl)amino)isoindoline-1,3-dione] | –
8.3 | 71 | 10 | 107 | O=C1CCC(N2C(=O)c3ccc(NCCCCCC(=O)N4CCC(c5ncccn5)CC4)cc3C2=O)C(=O)N1 (stereo not drawn) [GS-014, 2-(2,6-Dioxopiperidin-3-yl)-5-((6-oxo-6-(4-(pyrimidin-2-yl)piperidin-1-yl)hexyl)amino)isoindoline-1,3-dione] | –
2780 | > 10000 | 30 | > 10000 | O=C1CCC(N2C(=O)c3ccc(NCCCCCC(=O)N4CCC(N5CCC(c6cnc7ccccc7n6)C5)CC4)cc3C2=O)C(=O)N1 (stereo not drawn) [GS-015, 2-(2,6-Dioxopiperidin-3-yl)-5-((6-oxo-6-(4-(3-(quinoxalin-2-yl)pyrrolidin-1-yl)piperidin-1-yl)hexyl)amino)isoindoline-1,3-dione] | –
> 10000 | > 10000 | 86 | > 10000 | Cc1ccccc1C(=O)N1CCN(C(=O)CCCCCNc2ccc3c(c2)C(=O)N(C2CCC(=O)NC2=O)C3=O)CC1 (stereo not drawn) [GS-016, 2-(2,6-Dioxopiperidin-3-yl)-5-((6-(4-(2-methylbenzoyl)piperazin-1-yl)-6-oxohexyl)amino)isoindoline-1,3-dione] | –
2 | 20 | 2 | 30 | O=C1CCC(N2C(=O)c3ccc(NCCCCCC(=O)N4CCC(c5ccccn5)CC4)cc3C2=O)C(=O)N1 (stereo not drawn) [GS-017, 2-(2,6-Dioxopiperidin-3-yl)-5-((6-oxo-6-(4-(pyridin-2-yl)piperidin-1-yl)hexyl)amino)isoindoline-1,3-dione] | –
3 | 29 | 11 | 87 | O=C1CCC(N2Cc3cc(NC(=O)CCCCC(=O)N4CCC(n5cc(-c6cnc7cccc(Br)c7n6)cn5)CC4)ccc3C2=O)C(=O)N1 (stereo not drawn) [GS-020, 6-(4-(4-(8-Bromoquinoxalin-2-yl)-1H-pyrazol-1-yl)piperidin-1-yl)-N-(2-(2,6-dioxopiperidin-3-yl)-1-oxoisoindolin-5-yl)-6-oxohexanamide] | –
44 | 3130 | 111 | 82 | O=C(CCCC(=O)N1CCC(n2cc(-c3cnc4cccc(Br)c4n3)cn2)CC1)NCc1ccc2c(c1)CN(C1CCC(=O)NC1=O)C2=O (stereo not drawn) [GS-021, 5-(4-(4-(8-Bromoquinoxalin-2-yl)-1H-pyrazol-1-yl)piperidin-1-yl)-N-((2-(2,6-dioxopiperidin-3-yl)-1-oxoisoindolin-5-yl)methyl)-5-oxopentanamide] | –
